Source: the NIST ThermoML archive (doi:10.1021/acs.jced.7b00788)
Numbers after ± are expanded uncertainties.

Legend:
[1] = 100 kPa, Liquid; for viscosity: Concentric cylinders viscometry; for mass density: Vibrating tube method
[2] = xn = mol fraction of the nth substance listed; conditions: 100 kPa, Liquid, x1 = 1; for viscosity: Concentric cylinders viscometry; for mass density: Vibrating tube method

Q: For `CCOP(=O)([O-])OCC.CCn1cc[n+](C)c1` [1-ethyl-3-methylimidazolium diethyl phosphate], which viscosity ([1]; 293.15 K) is on record?
A: Its viscosity is 540 ± 30 mPa·s.

Q: What about the mass density ([1]; 293.15 K) of the same molecule?
A: The mass density was 1151.2 ± 1.2 kg/m3.

Q: And the viscosity ([1]; 303.15 K)?
A: Its viscosity is 274 ± 15 mPa·s.

Q: What about the mass density ([1]; 303.15 K) of the same molecule?
A: The mass density was 1144.2 ± 1.2 kg/m3.

Q: What about the viscosity ([1]; 313.15 K) of the same molecule?
A: Its viscosity is 154 ± 8 mPa·s.

Q: And the mass density ([1]; 313.15 K)?
A: Its mass density is 1137.4 ± 1.2 kg/m3.

Q: What about the viscosity ([1]; 323.15 K) of the same molecule?
A: The viscosity was 94 ± 4.4 mPa·s.

Q: What about the mass density ([1]; 323.15 K) of the same molecule?
A: The mass density was 1130.7 ± 1.2 kg/m3.

Q: What about the viscosity ([1]; 333.15 K) of the same molecule?
A: The viscosity was 61.2 ± 2.8 mPa·s.

Q: And the mass density ([1]; 333.15 K)?
A: Its mass density is 1124.1 ± 1.2 kg/m3.

Q: And the viscosity ([1]; 343.15 K)?
A: Its viscosity is 42.1 ± 1.9 mPa·s.

Q: What about the mass density ([1]; 343.15 K) of the same molecule?
A: The mass density was 1117.5 ± 1.2 kg/m3.

Q: And the viscosity ([1]; 353.15 K)?
A: Its viscosity is 30.2 ± 1.3 mPa·s.

Q: And the mass density ([1]; 353.15 K)?
A: The mass density was 1111 ± 1.1 kg/m3.

Q: What about the viscosity ([1]; 363.15 K) of the same molecule?
A: The viscosity was 22.5 ± 1 mPa·s.

Q: And the mass density ([1]; 363.15 K)?
A: Its mass density is 1104.5 ± 1.1 kg/m3.

Q: What about the viscosity ([1]; 373.15 K) of the same molecule?
A: Its viscosity is 17.3 ± 0.7 mPa·s.

Q: And the mass density ([1]; 373.15 K)?
A: Its mass density is 1098.2 ± 1.1 kg/m3.

Q: Which results are given for `C[S+](C)[O-]` [dimethyl sulfoxide]?
A: viscosity ([1]; 293.15 K): 2.31 ± 0.09 mPa·s; mass density ([1]; 293.15 K): 1101.2 ± 0.7 kg/m3; viscosity ([1]; 303.15 K): 1.89 ± 0.08 mPa·s; mass density ([1]; 303.15 K): 1091.2 ± 0.7 kg/m3; viscosity ([1]; 313.15 K): 1.57 ± 0.06 mPa·s; mass density ([1]; 313.15 K): 1081.1 ± 0.7 kg/m3; viscosity ([1]; 323.15 K): 1.33 ± 0.05 mPa·s; mass density ([1]; 323.15 K): 1071.1 ± 0.7 kg/m3; viscosity ([1]; 333.15 K): 1.15 ± 0.05 mPa·s; mass density ([1]; 333.15 K): 1061.2 ± 0.7 kg/m3; viscosity ([1]; 343.15 K): 1.01 ± 0.04 mPa·s; mass density ([1]; 343.15 K): 1051.3 ± 0.7 kg/m3; viscosity ([1]; 353.15 K): 0.893 ± 0.037 mPa·s; mass density ([1]; 353.15 K): 1041.1 ± 0.7 kg/m3; viscosity ([1]; 363.15 K): 0.799 ± 0.033 mPa·s; mass density ([1]; 363.15 K): 1031.3 ± 0.7 kg/m3; viscosity ([1]; 373.15 K): 0.721 ± 0.03 mPa·s; mass density ([1]; 373.15 K): 1021.4 ± 0.7 kg/m3

Q: Which viscosity ([1]; 293.15 K) does the source give for `O` [water] here?
A: The viscosity was 1 ± 0.04 mPa·s.

Q: What about the mass density ([1]; 293.15 K) of the same molecule?
A: The mass density was 1000.1 ± 0.5 kg/m3.

Q: And the viscosity ([1]; 303.15 K)?
A: The viscosity was 0.805 ± 0.034 mPa·s.

Q: And the mass density ([1]; 303.15 K)?
A: Its mass density is 998 ± 0.5 kg/m3.

Q: What about the viscosity ([1]; 313.15 K) of the same molecule?
A: Its viscosity is 0.651 ± 0.027 mPa·s.

Q: And the mass density ([1]; 313.15 K)?
A: The mass density was 994.3 ± 0.5 kg/m3.

Q: And the viscosity ([1]; 323.15 K)?
A: Its viscosity is 0.544 ± 0.023 mPa·s.

Q: And the viscosity ([1]; 333.15 K)?
A: Its viscosity is 0.472 ± 0.02 mPa·s.

Q: What about the mass density ([1]; 333.15 K) of the same molecule?
A: Its mass density is 985.2 ± 0.6 kg/m3.

Q: What about the viscosity ([1]; 343.15 K) of the same molecule?
A: The viscosity was 0.417 ± 0.018 mPa·s.

Q: And the mass density ([1]; 343.15 K)?
A: The mass density was 979.6 ± 0.6 kg/m3.

Q: And the viscosity ([1]; 353.15 K)?
A: Its viscosity is 0.342 ± 0.015 mPa·s.

Q: And the mass density ([1]; 353.15 K)?
A: Its mass density is 973.3 ± 0.6 kg/m3.

Q: What does the source list for `O` [water] + CCOP(=O)([O-])OCC.CCn1cc[n+](C)c1?
A: viscosity ([2]; 293.15 K): 1 ± 0.04 mPa·s; mass density ([2]; 293.15 K): 1000.1 ± 0.5 kg/m3; viscosity ([2]; 303.15 K): 0.805 ± 0.034 mPa·s; mass density ([2]; 303.15 K): 998 ± 0.5 kg/m3; viscosity ([2]; 313.15 K): 0.651 ± 0.027 mPa·s; mass density ([2]; 313.15 K): 994.3 ± 0.5 kg/m3; viscosity ([2]; 323.15 K): 0.544 ± 0.023 mPa·s; viscosity ([2]; 333.15 K): 0.472 ± 0.02 mPa·s; mass density ([2]; 333.15 K): 985.2 ± 0.6 kg/m3; viscosity ([2]; 343.15 K): 0.417 ± 0.018 mPa·s; mass density ([2]; 343.15 K): 979.6 ± 0.6 kg/m3; viscosity ([2]; 353.15 K): 0.342 ± 0.015 mPa·s; mass density ([2]; 353.15 K): 973.3 ± 0.6 kg/m3
